Test results as given in patent US9999650B2, “Peptide and peptidomimetic inhibitors” (Ra Pharmaceuticals, Inc., priority 2012, dated 2018).
Numbered stars: 1 amine (or outer) side, 2 acyl side, 3 side chain; on linkers, the order of the positions; unused ones are H or OH. Bridge positions count the residues as written; N and C are the ends. Square brackets hold non-standard residues; d marks the D form. Peptide text beside a SMILES is read from it. X3 = O=C(C(Cc1ccc(Br)s1)N[*:1])[*:2]; mXylylene = c1cc(C[*:1])cc(C[*:2])c1; NMeY = CN[C@@H](Cc1ccc(O)cc1)C(=O)O; NMeT = CN[C@H](C(=O)O)[C@@H](C)O; X2 = O=C(Cc1cccc(C[*:2])c1)[*:1]; dPhg = N[C@@H](C(=O)O)c1ccccc1; Chg = N[C@H](C(=O)O)C1CCCCC1; Phg = N[C@H](C(=O)O)c1ccccc1; Tle = CC(C)(C)[C@H](N)C(=O)O; NMeS = CN[C@@H](CO)C(=O)O; NMeA = CN[C@@H](C)C(=O)O; Dab = NCC[C@H](N)C(=O)O; Aib = CC(C)(N)C(=O)O; Mpa = O=C(O)CCS

Target: T1, human plasma kallikrein (Homo sapiens, UniProt P03952)
T1 construct: purchased Enzyme Research Laboratories HPKa 1303
Experiment: Enzyme inhibition assay (fluorogenic substrate H-Pro-Phe-Arg-AMC)
Type: biochemical
Settings: Kallikrein inhibitory activity; 1 nM activated human kallikrein, 500 μM H-Pro-Phe-Arg-AMC, 1 hour room temperature; read-out: Avg. IC50
Experimental: Activated human plasma kallikrein (Enzyme Research Laboratories, HPKa 1303) was reacted with H-Pro-Phe-Arg-7-amido-4-methylcoumarin (H-Pro-Pre-Arg-AMC) (a fluorogenic substrate for plasma as well as pancreatic and urinary kallikreins; Bachem I-1295) and candidate inhibitory peptides to determine the IC50 of the inhibitor.
Ten 8-fold serial dilutions of peptides (10 mM DMSO stocks) were performed in DMSO and then added to TCNB (50 mM Tris-HCl pH 7.2, 150 mM NaCl, 10 mM CaCl2, 0.05% Brij-35) and sonicated. 50 μL of the peptide dilutions were added to microtitre plates (96 well, black non-binding surface, Corning, 3650) and incubated for 5 minutes at room temperature with 4 nM activated human kallikrein (final concentration after addition of fluorogenic substrate: 1 nM). The samples were then incubated for 1 hour at room temperature with 2 mM H-Pro-Phe-Arg-AMC (final concentration 500 μM). Relative Fluorescence Units (RFU) were measured at excitation/emission 360 nm/460 nm by a SpectraMax M3.

T1 sequence (P03952 20-390 limits assumed): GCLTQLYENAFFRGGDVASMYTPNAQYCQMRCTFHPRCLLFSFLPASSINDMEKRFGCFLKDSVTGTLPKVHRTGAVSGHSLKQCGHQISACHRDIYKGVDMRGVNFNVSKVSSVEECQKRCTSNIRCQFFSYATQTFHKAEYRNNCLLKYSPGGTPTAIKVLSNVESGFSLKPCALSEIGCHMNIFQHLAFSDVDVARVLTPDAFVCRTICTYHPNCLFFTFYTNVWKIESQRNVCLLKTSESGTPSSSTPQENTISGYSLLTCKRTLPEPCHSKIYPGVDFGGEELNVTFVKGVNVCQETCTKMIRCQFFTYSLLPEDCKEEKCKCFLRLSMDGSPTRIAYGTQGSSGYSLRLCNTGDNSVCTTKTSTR
T1 sequence (P03952 391-638 limits assumed): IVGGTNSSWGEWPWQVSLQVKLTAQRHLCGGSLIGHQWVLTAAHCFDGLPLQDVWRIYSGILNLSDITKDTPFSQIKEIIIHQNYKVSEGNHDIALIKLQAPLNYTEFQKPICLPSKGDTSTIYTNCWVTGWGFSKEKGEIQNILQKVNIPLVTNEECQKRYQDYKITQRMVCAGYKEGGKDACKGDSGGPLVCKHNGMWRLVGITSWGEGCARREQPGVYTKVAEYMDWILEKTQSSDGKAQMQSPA

| Molecule | IC50 |
| --- | --- |
| CC(C)(C)[C@H](NC(=O)[C@H](CCCNC(=N)N)NC(=O)[C@@H]1C/C=C/c2cccc(c2)OCCCC(=O)N2CCC[C@H]2C(=O)N[C@@H](C2CCCCC2)C(=O)N1)C(N)=O [Compound R2262] | > 100 µM |
| CC[C@@H](C)[C@@H]1NC(=O)CCCCCC/C=C/C[C@@H](C(=O)N[C@@H](CCCNC(=N)N)C(=O)N[C@H](C(N)=O)C(C)C)NC1=O [Compound R2241] | > 75 µM |
| CC(C)(C)[C@H](NC(=O)[C@H](CCN)NC(=O)[C@@H]1CSCc2cccc(c2)CSCCC(=O)N2CCC[C@H]2C(=O)N[C@H](c2ccccc2)C(=O)N1)C(N)=O [Compound R2212, [mXylyl(1,4)](des-NH2)C-P-(D-Phg)-C-Dab-Tbg-NH2] ([Mpa]P[dPhg]C[Dab][Tle]-NH2; linker 1-4 via mXylylene) | > 100 µM |
| CC(C)(C)[C@H](NC(=O)C(Cc1ccc(Br)s1)NC(=O)[C@@H]1CSCc2cccc(c2)CSCCC(=O)N2CCC[C@H]2C(=O)N[C@@H](c2ccccc2)C(=O)N1)C(N)=O (stereo partly shown) [Compound R2219, [mXylyl(1,4)](des-NH2)C-P-Phg-C-ABP-Tbg-NH2] ([Mpa]P[Phg]C[X3][Tle]-NH2; linker 1-4 via mXylylene) | > 100 µM |
| CC[C@@H](C)[C@@H]1NC(=O)CCCCCCC/C=C/C[C@@H](C(=O)N[C@@H](CCCNC(=N)N)C(=O)N[C@H](C(N)=O)C(C)C)NC1=O [Compound R2240] | > 75 µM |
| Ac-SPWTECSA-NH2 [Compound R2120, Ac-SPWTECSA-NH2] | > 100 µM |
| CC(C)(C)[C@H](NC(=O)[C@H](CCCNC(=N)N)NC(=O)[C@@H]1CCn2cc(nn2)CCCCC(=O)N2CCC[C@H]2C(=O)N[C@@H](C2CCCCC2)C(=O)N1)C(N)=O [Compound R2249] | > 100 µM |
| CC(=O)N[C@@H](CS)C(=O)N[C@@H](CC(N)=O)C(=O)N[C@@H](Cc1ccc(O)cc1)C(=O)N[C@@H](Cc1c[nH]c2ccccc12)C(=O)N(C)[C@@H](CO)C(=O)N1CCC[C@H]1C(=O)N[C@@H](Cc1c[nH]c2ccccc12)C(=O)N[C@H](C(=O)N[C@@H](C)C(=O)N[C@@H](CS)C(N)=O)[C@@H](C)O [Compound R2237, Ac-CNYW-nMeS-PWTAC-NH2] (Ac-CNYW[NMeS]PWTAC-NH2) | > 13.9 µM |
| CC[C@@H](C)[C@@H]1NC(=O)[C@@H]2CCCN2C(=O)CCCCC/C=C/C[C@@H](C(=O)N[C@@H](CCCNC(=N)N)C(=O)N[C@H](C(N)=O)C(C)C)NC1=O [Compound R2246] | > 50 µM |
| CC[C@@H](C)[C@@H]1NC(=O)[C@@H]2CCCN2C(=O)CCCCCCC/C=C/C[C@@H](C(=O)N[C@@H](CCCNC(=N)N)C(=O)N[C@H](C(N)=O)C(C)C)NC1=O [Compound R2244] | > 50 µM |
| CC(=O)N[C@H]1CSSC[C@@H](C(N)=O)NC(=O)[C@H](C)NC(=O)[C@H]([C@@H](C)O)N(C)C(=O)[C@H](Cc2c[nH]c3ccccc23)NC(=O)[C@@H]2CCCN2C(=O)[C@H](CO)N(C)C(=O)[C@H](Cc2c[nH]c3ccccc23)NC(=O)[C@H](Cc2ccc(O)cc2)N(C)C(=O)[C@H](CC(N)=O)NC1=O [Compound R2224, [cyclo(1,10)]Ac-CN-nMeY-W-nMeS-PW-nMeT-AC-NH2] (Ac-CN[NMeY]W[NMeS]PW[NMeT]AC-NH2; disulfide 1-10) | > 100 µM |
| CC(C)(C)[C@H](NC(=O)[C@H](CCCNC(=N)N)NC(=O)[C@@H]1CCCc2cn(nn2)CCCCC(=O)N2CCC[C@H]2C(=O)N[C@@H](C2CCCCC2)C(=O)N1)C(N)=O [Compound R2253] | > 100 µM |
| CC[C@@H](C)[C@@H]1NC(=O)[C@@H]2CCCN2C(=O)CCCCCCCC/C=C/C[C@@H](C(=O)N[C@@H](CCCNC(=N)N)C(=O)N[C@H](C(N)=O)C(C)C)NC1=O [Compound R2243] | > 50 µM |
| CC(=O)N[C@@H](CS)C(=O)N[C@@H](CC(N)=O)C(=O)N[C@@H](Cc1ccc(O)cc1)C(=O)N[C@@H](Cc1c[nH]c2ccccc12)C(=O)N[C@@H](CO)C(=O)N1CCC[C@@H]1C(=O)N[C@@H](Cc1c[nH]c2ccccc12)C(=O)N[C@H](C(=O)N[C@@H](C)C(=O)N[C@@H](CS)C(N)=O)[C@@H](C)O [Compound R2229, Ac-CNYWSpWTAC-NH2] (Ac-CNYWS[dP]WTAC-NH2) | > 14.3 µM |

The remaining lines, values ahead:

| IC50 | Molecule |
| --- | --- |
| 0.0019 µM | CC[C@H](C)[C@@H]1NC(=O)[C@H](CO)NC(=O)[C@H](CCC(=O)O)NC(=O)[C@@H](NC(C)=O)CSCc2cccc(c2)CSC[C@@H](C(=O)N[C@@H](CCCNC(=N)N)C(=O)N[C@H](C(=O)N[C@@H](CC(C)C)C(=O)N[C@@H](CCCNC(=N)N)C(=O)N[C@@H](Cc2ccc(O)cc2)C(=O)N[C@@H](CO)C(N)=O)C(C)C)NC1=O [Compound R2056, [mXylyl(1,5)]Ac-CESICRVLRYS-NH2] (Ac-CESICRVLRYS-NH2; linker 1-5 via mXylylene) |
| 0.0035 µM | CC(=O)N[C@@H](CS)C(=O)N[C@@H](CC(N)=O)C(=O)N[C@@H](Cc1ccc(O)cc1)C(=O)N[C@@H](Cc1c[nH]c2ccccc12)C(=O)N[C@@H](CO)C(=O)N1CCC[C@H]1C(=O)N[C@@H](Cc1c[nH]c2ccccc12)C(=O)N[C@H](C(=O)N[C@@H](CCC(=O)O)C(=O)N[C@@H](CS)C(=O)N[C@@H](CO)C(=O)N[C@@H](C)C(N)=O)[C@@H](C)O [Compound R2116, Ac-CNYWSPWTECSA-NH2] (Ac-CNYWSPWTECSA-NH2) |
| > 8.88 µM | C[C@@H]1NC(=O)C(C)(C)NC(=O)CCSCc2cccc(c2)CSC[C@@H](C(=O)N[C@@H](CCCNC(=N)N)C(=O)O)NC(=O)[C@H](C2CCCCC2)NC1=O [Compound R2153, [mXylyl(1,5)](des-NH2)C-Aib-A-Chg-CR-OH] ([Mpa][Aib]A[Chg]CR-OH; linker 1-5 via mXylylene) |
| 0.164 µM | CC(C)(C)[C@H](NC(=O)[C@H](CCCNC(=N)N)NC(=O)[C@@H]1CSCc2cccc(c2)C/C=C/CC(=O)N2CCC[C@H]2C(=O)N[C@@H](C2CCCCC2)C(=O)N1)C(N)=O [Compound R2261] |
| 0.0031 µM | CSCC[C@H](N)C(=O)N[C@H]1CSCc2cccc(c2)CSC[C@@H](C(=O)N[C@@H](CO)C(=O)N[C@@H](CCCNC(=N)N)C(N)=O)NC(=O)[C@H](CCC(=O)O)NC(=O)[C@H]([C@@H](C)O)NC(=O)[C@H](Cc2c[nH]c3ccccc23)NC(=O)[C@@H]2CCCN2C(=O)[C@H](CO)NC(=O)[C@H](Cc2c[nH]c3ccccc23)NC(=O)[C@H](Cc2ccc(O)cc2)NC(=O)[C@H](CC(N)=O)NC1=O [Compound R2003, [mXylyl(2,11)]MCNYWSPWTECSR-NH2] (H-MCNYWSPWTECSR-NH2; linker 2-11 via mXylylene) |
| 0.0027 µM | CC(=O)N[C@@H](CS)C(=O)N[C@@H](CC(N)=O)C(=O)N[C@@H](Cc1ccc(O)cc1)C(=O)N[C@@H](Cc1c[nH]c2ccccc12)C(=O)N[C@@H](CO)C(=O)N1CCC[C@H]1C(=O)N[C@@H](Cc1c[nH]c2ccccc12)C(=O)N[C@H](C(=O)N(C)[C@@H](C)C(=O)N[C@@H](CS)C(N)=O)[C@@H](C)O [Compound R2234, Ac-CNYWSPWT-nMeA-C-NH2] (Ac-CNYWSPWT[NMeA]C-NH2) |
| 0.127 µM | CC(=O)N[C@@H](CS)C(=O)N[C@@H](CC(N)=O)C(=O)N[C@@H](Cc1ccc(O)cc1)C(=O)N[C@@H](Cc1c[nH]c2ccccc12)C(=O)N[C@@H](C)C(=O)N1CCC[C@H]1C(=O)N[C@@H](Cc1c[nH]c2ccccc12)C(=O)N[C@H](C(=O)N[C@@H](CCC(=O)O)C(=O)N[C@@H](CS)C(N)=O)[C@@H](C)O [Compound R2131, Ac-CNYWAPWTEC-NH2] (Ac-CNYWAPWTEC-NH2) |
| 0.0392 µM | CC(C)(C)[C@H](NC(=O)[C@H](CCCNC(=N)N)NC(=O)[C@@H]1CSCc2cccc(c2)CC(=O)NCC(=O)N2CCC[C@H]2C(=O)N[C@@H](C2CCCCC2)C(=O)N1)C(N)=O [Compound R2265] (GP[Chg]CR[Tle]-NH2; linker N-4 via X2) |
